Broadly, the IC50 is the point on the concentration scale where inhibition reaches its midpoint.

The values that follow come from patent US11964949B2, “Substituted phenyloxazolidinones for antimicrobial therapy” (priority 2015, dated 2024).

≈ marks a conversion by molar mass, not a printed value. Like-named read-outs stand apart in the source and are kept apart here.

Assay [1] has as its system Mycobacterium tuberculosis H37Rv. Kind of assay: In vitro assay for antimicrobial susceptibility (microplate Alamar blue, MIC). The format is cell-based. Conditions: for MIC: Mycobacterium tuberculosis, read-out: MIC (μg/mL) against H37Rv. For orientation: The colour change of resazurin is a common sign of viable cells or microbes.
Assay [2] has as its system mitochondrial protein synthesis (MPS) in H9C2 cells. Nature of the assay: In vitro assay for MPS inhibition (COX-1 / SDH-A ELISA in H9C2 cells). The format is cell-based, rat. The conditions noted are these: Rattus norvegicus, read-out: IC50 (μM) MPS inhibition. A general note: An ELISA detects its analyte on a solid surface through an enzyme-linked reagent.
[3] abbreviates: M. tuberculosis H37Rv, 7H9 broth, Alamar blue.
The mark [4] stands for this setting: 120 h, H9C2 cells, 5 days incubation.

As for `CCCC(=O)NC[C@H]1CN(c2ccc(N3CCCSCC3)c(F)c2)C(=O)O1` [OBD-005, (S)—N-((3-(3-fluoro-4-(1,4-thiazepan-4-yl)phenyl)-2-oxooxazolidin-5-yl)methyl)buty ramide], the MIC in assay [1] (setting [3]) worked out at 0.055 µg/mL (≈ 0.139 µM). In addition, the IC50 in assay [2] (setting [4]) was found to be 15.6 µM. The like results for `CC(=O)NC[C@H]1CN(c2cc(F)c(N3CC4CCC(C3)O4)c(F)c2)C(=O)O1` [OBD-048] were, in that order, 0.39 µg/mL (≈ 1.02 µM) and 5 µM. The like results for `O=C1O[C@@H](Cn2ccnn2)CN1c1cc(F)c(N2CC3(CSC3)C2)c(F)c1` [OTB-245, (R)-5-((1H-1,2,3-Triazol-1-yl)methyl)-3-(3,5-difluoro-4-(2-thia-6-azaspiro[3.3]heptan-6-yl)phenyl)oxazolidin-2-one] were, in that order, 0.03 to 0.5 µg/mL (≈ 0.0763 to 1.27 µM) and 25 to 35 µM. Regarding `NC[C@H]1CN(c2ccc(N3C4CCC3CSC4)c(F)c2)C(=O)O1` [OBD-081, (5S)-3-(4-(3-thia-8-aza-bicyclo[3.2.1]octan-8-yl)-3-fluorophenyl)-5-(aminomethyl)oxazolidin-2-one], the MIC in assay [1] (H37RV) worked out at 0.47 µg/mL (≈ 1.39 µM). In addition, in assay [2] (H9c2, 120 h), the IC50 is 77 µM. In the case of `CCCC(=O)OC[C@H]1CN(c2ccc(N3CCCSCC3)c(F)c2)C(=O)O1` [OTB-108, (R)-[3-[3-Fluoro-4-(1,4-thiazepan-4-yl)phenyl]-2-oxo-5-oxazolidinyl]methyl butyrate], the MIC in assay [1] (setting [3]) was 0.125 µg/mL (≈ 0.315 µM). The IC50 in assay [2] (setting [4]) is greater than 100 µM. On to `COC(=O)NC[C@H]1CN(c2ccc(N3CC4(COC4)C3)c(F)c2)C(=O)O1` [OTB-223, Methyl (S)-((3-(3-fluoro-4-(2-oxa-6-azaspiro[3.3]heptan-6-yl)phenyl)-2-oxo-oxazolidin-5-yl)methyl)carbamate], for which, in assay [1] (setting [3]), the MIC lay within 0.8 to 2.6 µg/mL (≈ 2.19 to 7.12 µM). Consider `COC(=O)NC[C@H]1CN(c2cc(F)c(N3CCCSCC3)c(F)c2)C(=O)O1` [OTB-410, Methyl (S)-((3-(3,5-difluoro-4-(1,4-thiazepan-4-yl)phenyl)-2-oxo-oxazolidin-5-yl)methyl)carbamate], for which the MIC in assay [1] (setting [3]) was found to be 0.125 µg/mL (≈ 0.311 µM). Besides, the IC50 in assay [2] (setting [4]) was greater than 100 µM. `O=C(NC[C@H]1CN(c2ccc(N3CCCSCC3)c(F)c2)C(=O)O1)c1cccs1` [OTB-112, (S)—N-[(3-[3-Fluoro-4-(1,4-thiazepan-4-yl)phenyl]-2-oxo-oxazolidin-5-yl)methyl]thiophene-2-carboxamide]: the MIC in assay [1] (setting [3]) was 0.5 µg/mL (≈ 1.15 µM). Further, the IC50 in assay [2] (setting [4]) was greater than 100 µM. As for `CCCC(=O)NC[C@H]1CN(c2ccc(N3CCC[S+]([O-])CCC3)c(F)c2)C(=O)O1` [OBD-004, (S)—N-((3-(3-Fluoro-4-(1-oxido-1,5-thiazocan-5-yl)phenyl)-2-oxooxazolidin-5-yl)methyl)butyramide], the MIC in assay [1] (setting [3]) came to 3.34 µg/mL (≈ 7.84 µM). For the same compound, the IC50 in assay [2] (setting [4]) was 15.8 µM. For the compound `CS(=O)(=O)NC[C@H]1CN(c2ccc(N3CC4(COC4)C3)c(F)c2)C(=O)O1` [OTB-222, (R)—N-((3-(3-Fluoro-4-(2-oxa-6-azaspiro[3.3]heptan-6-yl)phenyl)-2-oxo-oxazolidin-5-yl)methyl)methanesulfonamide], the MIC in assay [1] (setting [3]) is 7.4 µg/mL (≈ 19.2 µM). On to `COC(=O)NC[C@H]1CN(c2ccc(N3CCCSCC3)c(F)c2)C(=O)O1` [OTB-412, Methyl (S)-((3-(3-fluoro-4-(1,4-thiazepan-4-yl)phenyl)-2-oxo-oxazolidin-5-yl)methyl) carbamate], for which the MIC in assay [1] (setting [3]) stood at 0.199 µg/mL (≈ 0.519 µM). The 50% inhibitory concentration (IC50) in assay [2] (setting [4]) was determined as 10 µM. The like results for `CC(=O)NC[C@H]1CN(c2cc(F)c(N3CC4(C3)C[S+]([O-])C4)c(F)c2)C(=O)O1` [OTB-520] were, in that order, 0.4 µg/mL (≈ 1 µM) and 17 µM. Consider `O=C(NC[C@H]1CN(c2cc(F)c(N3CC4(CSC4)C3)c(F)c2)C(=O)O1)C1CCC1` [OTB-244, (S)—N-((3-(3,5-Difluoro-4-(2-thia-6-azaspiro[3.3]heptan-6-yl)phenyl)-2-oxo-oxazolidin-5-yl)methyl)cyclobutanecarboxamide], for which the MIC in assay [1] (setting [3]) lay in the range of 0.02 to 0.6 µg/mL (≈ 0.0472 to 1.42 µM). Regarding `O=C1O[C@@H](Cn2cncn2)CN1c1ccc(N2C3CCC2CSC3)c(F)c1` [OBD-021, (5R)-5-((1H-1,2,4-triazol-1-yl)methyl)-3-(4-(3-thia-8-aza-bicyclo[3.2.1]octan-8-yl)-3-fluorophenyl)oxazolidin-2-one], in assay [1] (H37RV), the MIC is 27.5 µg/mL (≈ 70.5 µM). `O=C(NC[C@H]1CN(c2ccc(N3CC4(CSC4)C3)c(F)c2)C(=O)O1)C1CC1` [OTB-249]: the MIC in assay [1] (setting [3]) lay within 0.06 to 0.15 µg/mL (≈ 0.153 to 0.383 µM). For `CC(=O)NC[C@H]1CN(c2cc(F)c(N3CCCSCCC3)c(F)c2)C(=O)O1` [OBD-027], the MIC in assay [1] (H37RV) was determined as 0.3 µg/mL (≈ 0.751 µM). Same read-out and setting: the figure for `O=C1O[C@@H](Cn2ccnn2)CN1c1ccc(N2[C@@H]3CC[C@H]2C[S+]([O-])C3)c(F)c1` (stereo partly drawn) [OTB-505, (5R)-5-((1H-1,2,3-Triazol-1-yl)methyl)-3-(3-fluoro-4-((1R,5S)-3-oxido-3-thia-8-azabicyclo[3.2.1]octan-8-yl)phenyl)oxazolidin-2-one] is 1.8 to 3.5 µg/mL (≈ 4.44 to 8.63 µM). Still for that read-out and setting: the figure for `O=C1O[C@@H](Cn2cncn2)CN1c1ccc(N2[C@@H]3CC[C@H]2C[S+]([O-])C3)c(F)c1` (stereo partly drawn) [OBD-018, (5R)-5-((1H-1,2,4-Triazol-1-yl)methyl)-3-(3-fluoro-4-((1R,5S)-3-oxido-3-thia-8-azabicyclo[3.2.1]octan-8-yl)phenyl)oxazolidin-2-one] is greater than 32 µg/mL. The same measure, in the same setting: the figure for `O=C1O[C@@H](CO)CN1c1ccc(N2[C@@H]3CC[C@H]2CSC3)c(F)c1` [OTB-501, (R)-3-(4-((1R,5S)-3-Thia-8-azabicyclo[3.2.1]octan-8-yl)-3-fluorophenyl)-5-(hydroxymethyl)oxazolidin-2-one] is 4.5 µg/mL (≈ 13.3 µM). As for `CS(=O)(=O)NC[C@H]1CN(c2ccc(N3[C@@H]4CC[C@H]3CSC4)c(F)c2)C(=O)O1` [OTB-236, N—(((R)-3-(4-((1R,5S)-3-Thia-8-azabicyclo[3.2.1]octan-8-yl)-3-fluorophenyl)-2-oxo-oxazolidin-5-yl)methyl)methanesulfonamide], the MIC in assay [1] (H37RV) is 14.3 µg/mL (≈ 34.3 µM).

Turning to `CC(=O)NC[C@H]1CN(c2ccc(N3[C@@H]4CC[C@H]3C[S+]([O-])C4)c(F)c2)C(=O)O1` (stereo partly drawn) [OTB-503, N-(((5S)-3-(3-Fluoro-4-((1R,5S)-3-oxido-3-thia-8-azabicyclo[3.2.1]octan-8-yl)phenyl)-2-oxo-oxazolidin-5-yl)methyl)acetamide], in assay [1] (H37RV), the MIC lay within 0.2 to 1.3 µg/mL (≈ 0.506 to 3.29 µM). On the same count and under the same terms, the value for `O=C1O[C@@H](Cn2ccnn2)CN1c1ccc(N2[C@@H]3CC[C@H]2CSC3)c(F)c1` [OTB-504, (R)-5-((1H-1,2,3-Triazol-1-yl)methyl)-3-(4-((1R,5S)-3-thia-8-azabicyclo[3.2.1]octan-8-yl)-3-fluorophenyl)oxazolidin-2-one] was 0.5 to 0.7 µg/mL (≈ 1.28 to 1.8 µM). On to `O=C(NC[C@H]1CN(c2ccc(N3CCCSCC3)c(F)c2)C(=O)O1)C1CCC1` [OTB-414, (S)—N-((3-(3-Fluoro-4-(1,4-thiazepan-4-yl)phenyl)-2-oxooxazolidin-5-yl)methyl)cyclobutanecarboxamide], for which, in assay [1] (setting [3]), the MIC amounted to 0.171 µg/mL (≈ 0.42 µM). The same measure, in the same setting: the figure for `O=C1O[C@@H](Cn2ccnn2)CN1c1cc(F)c(N2CC3(COC3)C2)c(F)c1` [OTB-234, (R)-5-((1H-1,2,3-Triazol-1-yl)methyl)-3-(3,5-difluoro-4-(2-oxa-6-azaspiro[3.3]heptan-6-yl)phenyl)oxazolidin-2-one] is 0.39 to 4 µg/mL (≈ 1.03 to 10.6 µM).

As for `CCCC(=O)NC[C@H]1CN(c2cc(F)c(N3CCCSCCC3)c(F)c2)C(=O)O1` [OBD-026, (S)—N-((3-(3,5-difluoro-4-(1,5-thiazocan-5-yl)phenyl)-2-oxooxazolidin-5-yl)methyl) butyramide], in assay [1] (setting [3]), the MIC is 0.4 µg/mL (≈ 0.936 µM). Still for that read-out and setting: the figure for `CC(=O)NC[C@H]1CN(c2ccc(N3CCC[S+]([O-])CCC3)c(F)c2)C(=O)O1` [OTB-124, (S)—N-[[3-(3-Fluoro-4-(1-oxido-1,5-thiazocan-5-yl)phenyl)-2-oxo-oxazolidin-5-yl]methyl]acetamide] is 0.26 to 1.4 µg/mL (≈ 0.654 to 3.52 µM).

Turning to `O=C(NC[C@H]1CN(c2ccc(N3CC4(COC4)C3)c(F)c2)C(=O)O1)c1ccco1` [OTB-205, (S)—N-((3-(3-Fluoro-4-(2-oxa-6-azaspiro[3.3]heptan-6-yl)phenyl)-2-oxo-oxazolidin-5-yl)methyl)furan-2-carboxamide], the MIC in assay [1] (setting [3]) came out at 3.9 µg/mL (≈ 9.72 µM). Still for that read-out and setting: the figure for `CNC[C@H]1CN(c2ccc(N3CCCSCC3)c(F)c2)C(=O)O1` [OTB-109, (S)-3-[3-Fluoro-4-(1,4-thiazepan-4-yl)phenyl]-5-[(methylamino)methyl]oxazolidin-2-one] is 32 µg/mL (≈ 94.3 µM).

For `COC(=O)NC[C@H]1CN(c2cc(F)c(N3CC4CCC(C3)O4)c(F)c2)C(=O)O1` [OBD-049], the MIC in assay [1] (setting [3]) lay in the range of 0.25 to 1 µg/mL (≈ 0.629 to 2.52 µM). The same measure, in the same setting: the value for `O=C1O[C@@H](CO)CN1c1ccc(N2CC3(COC3)C2)c(F)c1` [OTB-201, (R)-3-(3-Fluoro-4-(2-oxa-6-azaspiro[3.3]heptan-6-yl)phenyl)-5-(hydroxymethyl)oxazolidin-2-one] was 16 µg/mL (≈ 51.9 µM). Same read-out and setting: the value for `O=C(NC[C@H]1CN(c2ccc(N3CC4(COC4)C3)c(F)c2)C(=O)O1)c1cccs1` [OTB-206, (S)—N-((3-(3-Fluoro-4-(2-oxa-6-azaspiro[3.3]heptan-6-yl)phenyl)-2-oxo-oxazolidin-5-yl)methyl)thiophene-2-carboxamide] was 2.8 µg/mL (≈ 6.71 µM); that for `O=C(NC[C@H]1CN(c2ccc(N3CCCSCCC3)c(F)c2)C(=O)O1)c1cccs1` [OTB-118, (S)—N-[[3-(3-Fluoro-4-(1,5-thiazocan-5-yl)phenyl)-2-oxo-oxazolidin-5-yl]methyl]thiophene-2-carboxamide] was 1.55 µg/mL (≈ 3.44 µM). In the case of “(R)-5-((1H-1,2,3-Triazol-1-yl)methyl)-3-(3-fluoro-4-(2-oxa-6-azaspiro[3.3]heptan-6-yl)phenyl)oxazolidin-2-one [OTB-203]”, the “MIC (μg/mL) against H37Rv” value in assay [1] (setting [3]) is greater than 32 µg/mL. For `O=C1O[C@@H](Cn2ccnn2)CN1c1cc(F)c(N2[C@@H]3CC[C@H]2CSC3)c(F)c1` [OTB-511, (R)-5-((1H-1,2,3-Triazol-1-yl)methyl)-3-(4-((1R,5S)-3-thia-8-azabicyclo[3.2.1]octan-8-yl)-3,5-difluorophenyl)oxazolidin-2-one], in assay [1] (H37RV), the MIC fell in the range of 0.06 to 0.2 µg/mL (≈ 0.147 to 0.491 µM). On to `O=C(NC[C@H]1CN(c2ccc(N3CC4(CSC4)C3)c(F)c2)C(=O)O1)C1CCC1` [OTB-250], for which the MIC in assay [1] (setting [3]) stood at 0.06 µg/mL (≈ 0.148 µM).

For the compound `NC[C@H]1CN(c2cc(F)c(N3CC4(COC4)C3)c(F)c2)C(=O)O1` [OBD-062], in assay [1] (setting [3]), the MIC fell in the range of 0.1 to 0.25 µg/mL (≈ 0.307 to 0.768 µM).
